Read-outs that look alike come from different tables or passages of the source.
Tests used:
bovine coronary artery = assay: Vasorelaxant activity in bovine coronary artery rings precontracted with U-46619; format: cell-based; conditions: 10 μM
Method: Vasorelaxant activity was measured in bovine coronary artery. Bovine hearts were obtained and the left anterior descending coronary artery was dissected and cleaned of connective tissue. Vessels of 1 mm diameter were cut into rings of 3 mm width as previously described (3, 27, 39). […] The vessels were suspended from a pair of stainless steel hooks in a 6-ml water-jacketed organ chamber. […] One hook was anchored to a steel rod and the other hook to a force transducer (model FT-03C; Grass Instruments, West Warwick, R.I.). Tension of the vessel was measured by an ETH-400 bridge amplifier, and the data were acquired with a MacLab 8e analog-to-digital converter and MacLab software version 3.5.6 (AD Instruments, Milford, Mass.) and stored on a Macintosh computer for subsequent data analysis.
Basal tension was set at the length-tension maximum of 3.5 g and equilibrated for 1.5 h. KCl (40 mM) was added to the chamber until reproducible maximal contractions were maintained. […] Cumulative additions of compounds were added to the chamber. Between concentration-response curves, the chambers were rinsed with fresh Krebs buffer, 40 mM KCl was administered to determine the maximum contraction, and the vessels were rinsed. Consecutive concentration-response curves were performed with 14,15-EET followed by a concentration-response curve to a compound. The experiment was always repeated with the order of the agonists reversed. […] The relaxation was plotted versus compound concentration and the EC50 determined utilizing statistical software.

[1] = tested on: Spontaneously Hypertensive Rats (SHR); assay: Telemetry blood pressure and heart rate in spontaneously hypertensive rats; format: in vivo, rat
Text: (§1) Telemetry Blood Pressure Measurement. To accurately detect changes in blood pressure and heart rate, telemetry transmitters (Data Sciences Inc., St. Paul, Minn.) were implanted in rats one week prior to the experimental period according to manufacturer's specifications while under pentobarbital anesthesia. In brief, an incision was made to expose the femoral artery that was occluded to allow insertion of the transmitter catheter. The catheter was secured in place with tissue glue and the transmitter body was sutured in place and the incision line was closed. Rats were allowed to recover from surgery and were returned to individual housing. A baseline arterial pressure was recorded for prior to the experimental period. Mean arterial pressure was continuously recorded throughout the experimental period.
Telemetry transmitters were implanted into male SHR as described. After the surgical recovery period, baseline mean arterial pressure was recorded. In this series of experiments, EET analogs were administered by osmotic pump (2 mg/d, i.p.) and blood pressure was continuously monitored.

[2] = tested on: angiotensin II induced hypertensive rats; assay: Angiotensin II hypertension: telemetry blood pressure, heart rate, sodium and protein excretion; format: in vivo, rat; conditions: Ang II hypertension
Text: as §1
Telemetry transmitters were implanted into male Sprague-Dawley rats (225-275 g) as described. After recording basal blood pressure, osmotic pumps were implanted (s.c.) to deliver angiotensin at a dose of 60 ng/min. EET analogs were administered by an osmotic pump (2 mg/d, i.p.) and blood pressure was continuously monitored.
Animals were placed in a metabolic cage and urine was collected in a conical tube. Samples were stored at −80° C. until assayed. Urinary protein excretion was assessed as an index for renal injury. Protein was determined by the Bradford colorimetric method and creatinine was determined by the picric acid colorimetric method.

[3] = tested on: Wistar-Kyoto (WKY) rats administered cisplatin; assay: Cisplatin-induced nephrotoxicity in rats pretreated with EET analogs; format: in vivo, rat; conditions: for BUN: day 5 after cisplatin 7 mg/kg i.p., vehicle 241±51; for urinary NAG / plasma creatinine (PCr) / KIM-1 urinary excretion: day 5 after cisplatin; for urinary NAG: vehicle 3.0±0.6; for plasma creatinine (PCr): vehicle 3.1±0.2; for KIM-1 urinary excretion: vehicle 296±94; for cisplatin-induced proteinuria: vehicle 53±5; for reductions in renal mRNA expressions of inflammatory markers (TNF-α, IL-6, IL-1β) / reduction in elevated renal expressions of GRP78 and caspase 12 mRNAs: cisplatin-administered rats; for reduction in elevated renal expressions of GRP78 and caspase 12 mRNAs: vs vehicle treatment; for decrease in kidney expression of NOX1 and gp91phox mRNAs / reduction in urinary excretion of NAG and KIM-1 / reduction of cisplatin-induced proteinuria / reductions in elevated serum creatinine and BUN: vs vehicle-treated cisplatin rats
Text: Experiments were approved and carried out according to the guidelines of the Institutional Animal Care and Use Committee, Medical College of Wisconsin, Milwaukee, USA. Male Wistar-Kyoto (WKY) rats weighing 180-200 g (Charles River, Mass., USA). All animals were kept in a temperature-controlled environment with a 12-h light/dark cycle and were allowed free access to food and water at all times. An acclimatization period of 6 days was allowed for the rats before experimentation. The rats were assigned into four groups. Group 1 (WKY, n=5-7): Rats received drinking water ad libitum for seven days and on day 7 DMSO (Sigma Aldrich, St. Louis, Mo., USA) was administered (300-500 μl i.p). […] Group 2 (CP+Vehicle, n=5-7): Rats were pretreated with vehicle (0.05% ethanol and 0.1% PEG-400 v/v) in drinking water for seven days and then on day 7 CP was administered (7 mg/kg i.p.) followed by another five days treatment with vehicle. Group 3 (CP+EET-A, n=5-7): These rats are pretreated with the EET analog EET-A (10 mg/kg/day p.o.) for seven days in drinking water and then on day 7 administered CP as a single injection (7 mg/kg i.p.) followed by another five days treatment with EET-A. Group 4 (CP+EET-B, n=5-7): Rats of this group are pretreated with another EET analog EET-B (10 mg/kg/day) for 7 days in drinking water and then on day 7 CP was administered as a single injection (7 mg/kg i.p.) followed by another five days treatment with EET-B. Rats of groups 2, 3 and 4 had free access to vehicle, EET-A and -B in drinking water, respectively. One day before the rats were sacrificed, urine of each rat was collected over a 24-h period, and the volume was measured. Five days after CP or DMSO administration, rats were anesthetized for blood sample collection followed by euthanasia and tissue collection. Urine and plasma samples were kept frozen at −80° C. until analyzed. The kidneys were removed, washed with physiological saline and stored at −80° C. until used for RT-PCR analysis, thiobarbituric acid reactive substance (TBARS) measurement and caspase 3 activity assay. A part of the kidney also preserved in 10% buffered formalin for histological examination.
The levels of blood urea nitrogen (BUN) (BioAssay Systems, Hayward, Calif., USA) and serum creatinine (Cayman Chemical Company, Ann Arbor, Mich., USA) were measured spectrophotometrically using commercial kits. Urinary content of creatinine and protein were measured using commercial kits (Cayman Chemical Company, Ann Arbor, Mich., USA), and the activity of urinary N-acetyl-b-glucosaminidase (NAG) in the urine was measured by a kit from Diazyme (Diazyme Laboratories, Poway, Calif., USA). While urine content of kidney injury molecule-1 (KIM-1) was measured using ELISA (R&D Systems, Inc. Minneapolis, Minn., USA).
Malondialdehyde (MDA) is a thiobarbituric acid reactive substance (TBARS) that is formed as an end-product of lipid peroxidation and serves as an important index of oxidative stress. To determine the kidney MDA level, the rat kidney was homogenized with buffer containing 1.5% potassium chloride to obtain a 1:10 (w/v) whole kidney homogenate. Using a commercially available kit (Cayman Chemical Company, Ann Arbor, Mich., USA), MDA was measured spectrophotometrically after reaction with thiobarbituric acid. […]
Real-Time analysis was carried out to assess the expression of oxidative (gp91phox, NOX1, SOD1, SOD2, SOD3), inflammatory (TNF-α, IL-6, IL-1β), apoptotic (Bax, Bak, Bcl-2) and endoplasmic reticulum stress (GRP78, caspase 12) related genes in the kidney. Total RNA was isolated from kidney homogenate using TRIzol LS reagents (Invitrogen Life Technologies, Carlsbad, Calif., USA) according to the manufacturer's instructions. The isolated RNA was treated with RNase-free DNase (Invitrogen, Carlsbad, Calif., USA) to remove traces of genomic DNA contamination. […]

NCCIT cells = assay: Cell viability (alamar blue), cisplatin with concurrent EET-A; format: cell-based, human
Method: In this study, HEK293, U87MG, Hela cell-lines were obtained from the ATCC (Manassas, Va., USA) (HEK293, U87MG, Hela), and NCCIT was collected from Department of Pediatrics, UT Southwestern Medical Center at Dallas, Tex., USA. All cell lines were maintained in DMEM or RPIM with 10% fetal bovine serum and penicillin/streptomycin purchased from Life Technologies (Grand Island, N.Y., USA). Cisplatin was purchased from either Sigma (St. Louis, Mo., USA) or CalBiochem/EMD Biosciences (Billerica, Mass., USA). Cells were seeded in 96-well plates at 500 to 4,000 cells per well depends on cell type. […] Cell viability was measured by alamar blue assay using resazurin (Sigma Aldrich) according to the manufacturer's guidelines. Viability results were measured by fluorescence/absorbance in a 96-well plate reader from BMG Labtech (Cary, N.C., USA) and the IC50 was calculated by GraphPad Prism® software (GraphPad Software Inc, La Jolla, Calif., USA).

Structure (SMILES) | BUN ([3]; 10 mg/kg/d p.o.) | urinary NAG ([3]; 10 mg/kg/d p.o.) | plasma creatinine (PCr) ([3]; 10 mg/kg/d p.o.) | KIM-1 urinary excretion ([3]; 10 mg/kg/d p.o.) | cisplatin-induced proteinuria ([3]; 10 mg/kg/d p.o.) | reductions in renal mRNA expressions of inflammatory markers (TNF-α, IL-6, IL-1β) [3] | reduction in elevated renal expressions of GRP78 and caspase 12 mRNAs [3] | decrease in kidney expression of NOX1 and gp91phox mRNAs [3] | reduction in urinary excretion of NAG and KIM-1 [3] | reduction of cisplatin-induced proteinuria [3] | reductions in elevated serum creatinine and BUN [3] | other results
CCCCCCC(=O)N(CCCCCOc1cccc2sc(NC(C)=O)nc12)C(C)C [Compound 30, N-(5-(2-Acetamidobenzo[d]thiazol-4-yloxy)pentyl)-N-isopropylheptanamide] | – | – | – | – | – | – | – | – | – | – | – | Vascular Relax. % (10 μM) (bovine coronary artery; 100% relaxation = basal pre-U-46619 tension): 96%; Vascular relaxation % relaxation (10 μM) (bovine coronary artery; Table 2): 96%; blood pressure after two weeks of treatment ([1]; 2 mg/d i.p. osmotic pump, vehicle 141±3.0): 129±2.0 mmHg; heart rate ([1]; 2 mg/d i.p., vehicle 331±17.0): 318±24.0 BPM; decrease in blood pressure compared to vehicle ([1]; two weeks treatment): 12 mmHg; blood pressure at end of two-week treatment ([2]; 2 mg/d i.p., vehicle 150±3.2): 107±2.0 mmHg; sodium excretion (natriuresis) ([2]; two weeks, vehicle 1.9±0.7): 2.7 ± 0.3 mmol/day; heart rate ([2]; two weeks, vehicle 396±25.0): 385±16.0 BPM
CCCCCNC(=O)NCCCC/C=C\CCCCCCC(=O)NC(CC(=O)[O-])C(=O)[O-].[Na+].[Na+] [EET-A, Sodium (S)-2-(13-(3-pentylureido)tridec-8(Z)-enamido)succinate] | 108 ± 30 mg/dL | 0.5±0.1 U/d | 2.0 ± 0.2 mg/dL | 85 ± 29 ng/day | 33 ± 8 mg/day | 40-60% | 2-4 fold | 2-3 folds | 30-50% | ≥ 40% | 30-50% | kidney TBARS formation ([3]; 10 mg/kg/d p.o., after cisplatin, vehicle 16±2): 7 ± 1 µmol/g
CCCCCCC(=O)N(CCCCCOc1cccc2sc(NC(=O)C(C)(C)C)nc12)C(C)C [EET-B, N-Isopropyl-N-(5-(2-pivalamidobenzo[d]thiazol-4-yloxy)pentyl)heptanamide] | 120 ± 33 mg/dL | 0.6±0.2 U/d | 1.4 ± 0.2 mg/dL | 57 ± 13 ng/day | 32 ± 3 mg/day | 40-60% | 2-4 fold | 2-3 folds | 30-50% | ≥ 40% | 30-50% | –
N.N.[Cl][Pt][Cl] [cisplatin] | – | – | – | – | – | – | – | – | – | – | – | IC50 (NCCIT cells; read-out: IC50 for cisplatin, with 0 ng/ml EET-A): 2600 nM; IC50 (NCCIT cells; read-out: IC50 for cisplatin, with 1 ng/ml EET-A): 2550 nM; IC50 (NCCIT cells; read-out: IC50 for cisplatin, with 10 ng/ml EET-A): 2440 nM
